Experiments:
Type in all cases: in vivo
[1] = tested on: Spodoptera frugiperda; test: Spodoptera frugiperda spray test; conditions: 168 h
Procedure: (§1) • Solvent: 78.0 parts by weight acetone • 1.5 parts by weight dimethylformamide • Emulsifier: alkylarylpolyglycol ether
(§2) To produce a suitable preparation of active compound, 1 part by weight of active compound is mixed with the stated amount of solvents and is diluted with water, containing an emulsifier concentration of 1000 ppm, to the desired concentration. Further test concentrations are prepared by dilution with emulsifier containing water.
Maize (Zea mays) leaf sections are sprayed with a preparation of the active ingredient of the desired concentration. Once dry, the leaf sections are infested with fall armyworm larvae (Spodoptera frugiperda).
After 7 days mortality in % is determined. 100% means all caterpillars have been killed and 0% means none of the caterpillars have been killed.

[2] = tested on: Boophilus microplus; test: Boophilus microplus injection test; conditions: Rhipicephalus microplus, 168 h, 20 μg/animal, egg deposition after 7 days, read-out: efficacy (infertile eggs)
Procedure: (§3) • Solvent: dimethyl sulfoxide
To produce a suitable preparation of active compound, 10 mg of active compound are dissolved in 0.5 ml solvent, and the concentrate is diluted with solvent to the desired concentration.
Five adult engorged female ticks (Boophilus microplus) are injected with 1 μl compound solution into the abdomen. The ticks are transferred into replica plates and incubated in a climate chamber.
After 7 days egg deposition of fertile eggs is monitored. Eggs where fertility is not visible are stored in a climate chamber till hatching after about 42 days. An efficacy of 100% means all eggs are infertile; 0% means all eggs are fertile.

[3] = tested on: Ctenocephalides felis; test: Ctenocephalides felis oral test; conditions: 48 h, 100 ppm in cattle blood, after 2 days
Procedure: as §3
To produce a suitable preparation of active compound, 10 mg of active compound are dissolved in 0.5 ml solvent, and the concentrate is diluted with cattle blood to the desired concentration.
Approximately 20 adult unfed cat fleas (Ctenocephalides felis) are placed in flea chambers. The blood chamber, sealed with parafilm on the bottom, are filled with cattle blood supplied with compound solution and placed on the gauze covered top of the flea chamber, so that the fleas are able to suck the blood. The blood chamber is heated to 37° C. whereas the flea chamber is kept at room temperature.
After 2 days mortality in % is determined. 100% means all the fleas have been killed; 0% means none of the fleas have been killed.

[4] = tested on: Myzus persicae; test: Myzus persicae oral test; conditions: 120 h
Procedure: • Solvent: 100 parts by weight acetone
To produce a suitable preparation of active compound, 1 part by weight of active compound is mixed with the stated amount of solvent, and the concentrate is diluted with water to the desired concentration. 50 μl compound solution is filled in microtiter plates and 150 μl IPL41 insect medium (33%+15% sugar) is added to obtain a total volume of 200 μl per well. Afterwards the plates are sealed with parafilm through which a mixed population of the green peach aphid (Myzus persicae) can suck on the compound preparation.
(§4) After 5 days mortality in % is determined. 100% means all aphids have been killed and 0% means none of the aphids have been killed.

[5] = tested on: Phaedon cochleariae; test: Phaedon cochleariae spray test; conditions: 168 h, after 7 days
Procedure: (§5) • Solvent: 78.0 parts by weight of acetone • 1.5 parts by weight of dimethylformamide • Emulsifier: alkylarylpolyglycol ether
as §2
Chinese cabbage (Brassica pekinensis) leaf disks are sprayed with a preparation of the active ingredient of the desired concentration. Once dry, the leaf disks are infested with mustard beetle larvae (Phaedon cochleariae).
After 7 days mortality in % is determined. 100% means all beetle larvae have been killed and 0% means none of the beetle larvae have been killed.

[6] = tested on: Nezara viridula; test: Nezara viridula spray test; conditions: 96 h
Procedure: as §5
as §2, with “solvent,” for “solvents”, “and the concentrate” for “and”
Barley plants (Hordeum vulgare) infested with larvae of the southern green stink bug (Nezara viridula) are sprayed with a test solution containing the desired concentration of the active ingredient.
After 4 days mortality in % is determined. 100% means all the stink bugs have been killed; 0% means none of the stink bugs have been killed.

[7] = tested on: Tetranychus urticae (OP-Resistant); test: Tetranychus urticae (OP-resistant) spray test; conditions: 144 h, after 6 days
Procedure: as §1, §2
French bean (Phaseolus vulgaris) leaf disks infected with all instars of the two spotted spidermite (Tetranychus urticae), are sprayed with a preparation of the active ingredient of the desired concentration.
After 6 days mortality in % is determined. 100% means all spider mites have been killed and 0% means none of the spider mites have been killed.

[8] = tested on: Ctenocephalides felis; test: Ctenocephalides felis in-vitro contact test, adult cat flea; conditions: 5 μg/cm^2, after 48 hours, read-out: efficacy (fleas dead or moribund)
Procedure: (§6) 9 mg compound is solved in 1 ml acetone and diluted with acetone to the desired concentration. 250 μl of the test solution is filled in 25 ml glass test tubes and homogeneously distributed on the inner walls by rotation and tilting on a shaking device (2 h at 30 rpm). With a compound concentration of 900 ppm, an inner surface of 44.7 cm^2 and a homogeneous distribution, a dose of 5 μg/cm^2 is achieved.
(§7) After the solvent has evaporated, each test tube is filled with 5-10 adult cat fleas (Ctenocephalides felis), closed with a perforated lid and incubated in a lying position at room temperature and relative humidity. After 48 hours efficacy is determined. The fleas are patted on the ground of the tubes and are incubated on a heating plate at 45-50° C. for at most 5 minutes. Immotile or uncoordinated moving fleas, which are not able to escape the heat by climbing upwards, are marked as dead or moribund.
An efficacy of 100% means all fleas are dead or moribund; 0% means no fleas are dead or moribund.

[9] = tested on: Nilaparvata lugens; test: Nilaparvata lugens spray test; conditions: 96 h
Procedure: as §5, §2
Rice plants (Oryza sativa) are sprayed with a preparation of the active ingredient of the desired concentration and the plants are infested with the brown planthopper (Nilaparvata lugens).
After 4 days mortality in % is determined. 100% means all planthoppers have been killed and 0% means none of the planthoppers have been killed.

[10] = tested on: Rhipicephalus sanguineus; test: Rhipicephalus sanguineus in-vitro contact test, adult brown dog ticks
Procedure: as §6
as §7, with “brown dog ticks (Rhipicephalus sanguineus),” for “cat fleas (Ctenocephalides felis),”, “ticks” for “fleas”, “ticks,” for “fleas,”
An efficacy of 100% means all ticks are dead or moribund; 0% means no ticks are dead or moribund.

[11] = tested on: Musca domestica strain WHO-N; test: Musca domestica test (surface treatment & contact assay); conditions: 24 hours after contact, read-out: efficacy (mortality); for mortality at 4 mg/m2: surface concentration 4 mg/m^2, 30 min exposure; for mortality at 20 mg/m2: surface concentration 20 mg/m^2, 30 min exposure
Procedure: (§8) • Solvent: Aceton+2000 ppm rapeseed oil methyl ester (RME)
(§9) In order to produce a sufficient, active ingredient containing solution it is necessary to solve the test compound in the solvent-mix (acetone at 2 mg/ml/RME 2000 ppm). This solution is pipetted onto a glazed tile and after evaporation of the acetone, adult flies of the species Musca domestica strain WHO-N are placed onto the dried surface. The exposure time is 30 minutes.
(§10) Mortality in percent (%) is determined 24 hours after contact of the insects to the treated surface. 100% mortality means that all tested insects are dead, whereas 0% means that no insect died.

[12] = tested on: Aedes aegypti strain MONHEIM; test: Aedes aegypti test (surface treatment & contact assay); conditions: 24 hours after contact, read-out: efficacy (mortality); for mortality at 4 mg/m2: surface concentration 4 mg/m^2, 30 min exposure; for mortality at 20 mg/m2: surface concentration 20 mg/m^2, 30 min exposure
Procedure: as §8
as §9, with “mosquitoes” for “flies”, “Aedes aegypti” for “Musca domestica”, “MONHEIM” for “WHO-N”
as §10

[13] = tested on: Myzus persicae; test: Myzus persicae spray test; conditions: 120 h
Procedure: as §1, §2
Chinese cabbage (Brassica pekinensis) leaf disks infected with all instars of the green peach aphid (Myzus persicae), are sprayed with a preparation of the active ingredient of the desired concentration.
as §4

[14] = tested on: Culex quinquefasciatus strain P00; test: Culex quinquefasciatus test (surface treatment & contact assay); conditions: 24 hours after contact, read-out: efficacy (mortality); for mortality at 20 mg/m2: surface concentration 20 mg/m^2, 30 min exposure; for mortality at 4 mg/m2: surface concentration 4 mg/m^2, 30 min exposure
Procedure: as §8
as §9, with “mosquitoes” for “flies”, “Culex quinquefasciatus” for “Musca domestica”, “P00” for “WHO-N”
as §10

[15] = tested on: Anopheles funestus strain FUMOZ-R; test: Anopheles funestus test (surface treatment & contact assay); conditions: 24 hours after contact, read-out: efficacy (mortality); for mortality at 20 mg/m2: surface concentration 20 mg/m^2, 30 min exposure; for mortality at 4 mg/m2: surface concentration 4 mg/m^2, 30 min exposure
Procedure: as §8
as §9, with “mosquitoes” for “flies”, “Anopheles funestus” for “Musca domestica”, “FUMOZ-R (Hunt et al., Med. Vet. Entomol. 2005 September; 19(3): 271-275)” for “WHO-N”
as §10

| SMILES | mortality at 500 g/ha [1] [%] | pest or weed control at 0.02 mg [2] [%] | mortality at 100 ppm [3] [%] | mortality at 4 ppm [4] [%] | mortality at 20 ppm [4] [%] | mortality at 500 g/ha [5] [%] | mortality at 500 g/ha [6] [%] | mortality at 500 g/ha [7] [%] | pest or weed control at 5 µg/cm2 [8] [%] | mortality at 500 g/ha [9] [%] | efficacy (ticks dead or moribund) ([10]; 1 μg/cm^2, after 48 hours) [%] | efficacy (ticks dead or moribund) ([10]; 5 μg/cm^2, after 48 hours) [%] | mortality at 4 mg/m2 [11] [%] | mortality at 20 mg/m2 [11] [%] | mortality at 4 mg/m2 [12] [%] | mortality at 20 mg/m2 [12] [%] | mortality at 500 g/ha [13] [%] | mortality at 20 mg/m2 [14] [%] | mortality at 20 mg/m2 [15] [%] | further results |
| --- | --- | --- | --- | --- | --- | --- | --- | --- | --- | --- | --- | --- | --- | --- | --- | --- | --- | --- | --- | --- |
| CON(C(=O)c1cc(Cl)cc(C(F)(F)F)c1)C(C)c1ncnn1-c1ncccn1 (stereo not drawn) [Example I-026] | 100 | 100 | 100 | 100 | 100 | 100 | 100 | 90 | – | – | – | – | – | – | – | – | – | – | – | – |
| CCOCN(C(=O)c1cc(Cl)cc(C(F)(F)F)c1)C(C)c1ncnn1-c1ncccn1 (stereo not drawn) [Example I-013, 3-Chloro-N-(ethoxymethyl)-N-{1-[1-(pyrimidin-2-yl)-1H-1,2,4-triazol-5-yl]ethyl}-5-(trifluoromethyl)benzamide] | 100 | 100 | 100 | 100 | 100 | 100 | – | 80 | 100 | 100 | 100 | 100 | – | – | – | – | – | – | – | – |
| CSCCN(C(=O)c1cc(Cl)cc(C(F)(F)F)c1)C(C)c1ncnn1-c1ccc(C#N)cn1 (stereo not drawn) [Example I-033] | 100 | – | – | 100 | – | – | 100 | – | 100 | – | – | – | 90 to 100 | 90 to 100 | 80 to 100 | 90 to 100 | 90 | 90 to 100 | 85 to 100 | – |
| CC(c1ncnn1-c1ncccn1)N(Cc1ccc(Cl)nc1)C(=O)c1cc(Cl)cc(C(F)(F)F)c1 (stereo not drawn) [Example I-030] | 100 | 100 | 100 | 100 | – | – | 100 | – | 90 | 100 | – | – | 90 to 100 | 90 to 100 | 80 to 100 | 90 to 100 | 100 | 90 to 100 | 85 to 100 | – |
| CSCCN(C(=O)c1cc(C(F)(F)F)cc(C(F)(F)F)c1)C(C)c1ncnn1-c1ccc(C#N)cn1 (stereo not drawn) [Example I-034] | 100 | – | – | 100 | – | – | 100 | – | 100 | – | – | – | 90 to 100 | 90 to 100 | – | 90 to 100 | 100 | 90 to 100 | 85 to 100 | mortality at 4 mg/m2 [14]: 85 to 100% |
| CON(C(=O)c1cccc(C(F)(F)F)c1)C(C)c1ncnn1-c1ncccn1 (stereo not drawn) [Example I-028] | – | 100 | – | – | – | – | 100 | – | – | 100 | 80 | 100 | – | – | – | – | – | – | – | – |
| CSCCN(C(=O)c1cc(Cl)cc(C(F)(F)F)c1)C(C)c1ncnn1-c1ncccn1 (stereo not drawn) [Example I-017] | 100 | 100 | 100 | 100 | 100 | 100 | 100 | – | 100 | 100 | 80 | 100 | 90 to 100 | 90 to 100 | 80 to 100 | 90 to 100 | – | 90 to 100 | 85 to 100 | mortality at 4 mg/m2 [14]: 85 to 100%; mortality at 4 mg/m2 [15]: 85 to 100% |
| CCON(C(=O)c1cc(Cl)cc(C(F)(F)F)c1)C(C)c1ncnn1-c1ncccn1 (stereo not drawn) [Example I-027] | – | 100 | 100 | 100 | 100 | 100 | 100 | 80 | 100 | – | 100 | – | – | – | – | – | – | – | 85 to 100 | mortality at 4 mg/m2 [15]: 85 to 100% |

Source: patent publication US12116357B2, “Heteroaryl-triazole and heteroaryl-tetrazole compounds as pesticides” (Bayer Aktiengesellschaft, priority 2018, dated 2024)
